What is called LD50 is the dose at which mortality reaches 50%. Read a low LD50 as a more toxic substance.

In data set [1] the test system is blood glucose concentration. Put plainly: Determination of glucose in the blood after a single oral administration (fasting, metabolically healthy rats). The conditions noted are these: Rattus norvegicus. Format: in vivo, rat (young male Sprague-Dawley). The method, then:
Table I reflects investigations of the effect of representative compounds according to the invention on the blood glucose concentration of fasting, metabolically healthy rats which are observed for 6 hours after a single oral administration of from 0.01 to 0.6 mmol of substance/kg of body weight.
1. Determination of glucose in the blood after a single oral administration-
Young male Sprague-Dawley rats (body weight: 150 to 200 g) are used. The animals are kept in Makrolon cages with up to 4 animals per cage (ambient temperature: 23° C., relative atmospheric humidity: 55%, fixed day/night rhythm [12/12 hours], standard diet: Altromin®). The rats are deprived of the feed 18 hours before the first sample of blood is taken. Water is available ad libitum. Samples of blood are taken from the postorbital plexus by puncture immediately before and 3 and 6 hours after administration of the substance.
After deproteinization with perchloric acid, the glucose in the blood is determined by means of the enzymatic HK/G-6-PDH method of R. Richterich [Klinische Chemie, Theorie und Praxis, (Clinical Chemistry, Theory and Practice), 3rd edition, 1971, S. Karger Verlag, Zurich-Basle, page 275]. A control group (treated with pure solvent) is also investigated in each case for comparison.

The next data set can be described thus: in vivo. The conditions noted are these: mouse, po. As to the method:
Column C provides data relating to acute toxicity (LD50; mice, peroral administration).
2. Determination of the toxicity-
Various doses of the substances (volume: 10 ml/kg) are administered orally by means of a stomach tube. The observation time is 7 days.

The mark [2] stands for this setting: rats p.o., single dose, fasting, observed for 6 hours, with reference to control group, read-out: ED50 (15%): dose which effects a lowering of the blood glucose concentration by at least 15% in 50% of the animals.
Where [3] appears, read: rats p.o., single dose, fasting, observed for 6 hours, with reference to control group, read-out: ED50 (25%): dose which effects a lowering of the blood glucose concentration by at least 25% in 50% of the animals.

Where two headings read alike, the source gives them in different places.

Turning to `CCCCNC(=N)NC(=N)N` [Serial No. 1, Buformin, reference compound], the ED50 is more than 100 mg/kg in data set [1] (6 h, read-out: ED50 (15%): dose which effects a lowering of the blood glucose concentration by at least 15% in 50% of the animals) and 194 mg/kg in data set [1] (6 h, read-out: ED50 (25%): dose which effects a lowering of the blood glucose concentration by at least 25% in 50% of the animals).

On to `[H]/N=C(/N)N/C(=N/[H])NCCc1ccccc1` [Serial No. 2, Phenformin, reference compound], for which the ED50 in data set [1] (setting [2]) was more than 150 mg/kg; in data set [1] (setting [3]), more than 343 mg/kg.

On to `CCOC(=O)C1(CCCCOc2cccc(Cl)c2)CO1` (stereo not drawn) [Serial No. 3, 2-[4-(3-Chlorophenoxy)butyl]oxirane-2-carboxylic acid ethyl ester], for which, in the data set “in vivo”, the LD50 at 168 h stood at 390 mg/kg. The results for the ED50 in data set [1] (setting [2]) and in data set [1] (setting [3]) were 3 mg/kg and 24 mg/kg, respectively.

`CCOC(=O)C1(CCCCOc2cccc(C(F)(F)F)c2)CO1` (stereo not drawn) [Serial No. 4, 2-[4-(3-Trifluoromethylphenoxy)butyl]oxirane-2-carboxylic acid ethyl ester] registered an LD50 at 168 h in the data set “in vivo” of 460 mg/kg. The results for the ED50 in data set [1] (setting [2]) and in data set [1] (setting [3]) were approximately 7 mg/kg and 13 mg/kg, respectively.

In “in vivo”, `CCOC(=O)C1(CCCCCCOc2ccc(Cl)cc2)CO1` (stereo not drawn) [Serial No. 5, 2-[6-(4-Chlorophenoxy)hexyl]oxirane-2-carboxylic acid ethyl ester] yielded an LD50 at 168 h of 300 mg/kg. Moreover, the ED50 in data set [1] (setting [2]) was less than 7 mg/kg; in data set [1] (setting [3]), 7 mg/kg.

As to `CCOC(=O)C1(CCCCCOc2ccc(Cl)cc2)CO1` (stereo not drawn) [Serial No. 6, 2-[5-(4-Chlorophenoxy)pentyl]oxirane-2-carboxylic acid ethyl ester], the LD50 at 168 h in “in vivo” turned out to be 310 mg/kg. Further, the ED50 in data set [1] (setting [2]) came to 5 mg/kg; in data set [1] (setting [3]) it was 6 mg/kg.

As for `CCOC(=O)C1(CCCCOc2ccc(C)cc2)CO1` (stereo not drawn) [Serial No. 7, 2-[4-(4-Methylphenoxy)butyl]oxirane-2-carboxylic acid ethyl ester], the ED50 is 8 mg/kg in data set [1] (setting [2]) and 19 mg/kg in data set [1] (setting [3]).

The values are drawn from patent US4337267A, “Phenalkoxyalkyl- and phenoxyalkyl-substituted oxiranecarboxylic acids, their use and medicaments containing them” (Byk Gulden Lomberg Chemische Fabrik GmbH, priority 1980, dated 1982).
